{"source": "the kinase profiling compilation of Christmann-Franck et al. (2016)", "experiment_in_all_cases": "SelectScreen, TR FRET", "key": {"[1]": {"tested_on": "RAF1 (human), P04049 [Y340D/Y341D]"}, "[2]": {"molecular_target": "PRKCQ (human) (UniProt Q04759)"}, "[3]": {"molecular_target": "PTK6 (human) (UniProt Q13882)", "sequence (Q13882 whole entry, looked up)": "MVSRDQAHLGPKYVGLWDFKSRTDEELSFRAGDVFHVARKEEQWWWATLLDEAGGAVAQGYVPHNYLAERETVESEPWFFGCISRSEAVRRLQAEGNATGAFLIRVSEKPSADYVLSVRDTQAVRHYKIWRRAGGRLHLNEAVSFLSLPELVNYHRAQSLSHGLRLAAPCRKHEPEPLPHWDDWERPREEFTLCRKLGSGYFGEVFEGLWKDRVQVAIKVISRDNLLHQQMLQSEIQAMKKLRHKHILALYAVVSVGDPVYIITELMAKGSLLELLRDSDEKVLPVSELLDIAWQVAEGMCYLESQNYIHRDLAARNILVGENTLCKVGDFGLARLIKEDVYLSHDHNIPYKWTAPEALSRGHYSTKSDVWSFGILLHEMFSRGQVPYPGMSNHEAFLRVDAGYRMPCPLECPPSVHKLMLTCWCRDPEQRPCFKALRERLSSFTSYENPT"}, "[4]": {"molecular_target": "MAPK14 (human) (UniProt Q16539)", "sequence (Q16539 whole entry, looked up)": "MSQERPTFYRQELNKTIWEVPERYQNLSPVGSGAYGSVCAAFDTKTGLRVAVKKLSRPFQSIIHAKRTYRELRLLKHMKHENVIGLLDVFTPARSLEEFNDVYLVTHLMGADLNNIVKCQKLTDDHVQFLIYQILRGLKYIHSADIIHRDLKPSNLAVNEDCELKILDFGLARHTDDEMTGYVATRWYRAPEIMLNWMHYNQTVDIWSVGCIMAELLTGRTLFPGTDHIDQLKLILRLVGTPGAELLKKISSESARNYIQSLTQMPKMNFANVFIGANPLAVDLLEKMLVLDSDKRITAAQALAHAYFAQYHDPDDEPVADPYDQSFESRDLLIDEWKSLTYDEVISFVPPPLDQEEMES"}, "[5]": {"molecular_target": "PRKACA (human) (UniProt P17612)"}, "[6]": {"molecular_target": "PRKCI (human) (UniProt P41743)"}, "[7]": {"molecular_target": "INSR (human) (UniProt P06213)"}, "[8]": {"molecular_target": "NEK4 (human) (UniProt P51957)", "sequence (P51957 whole entry, looked up)": "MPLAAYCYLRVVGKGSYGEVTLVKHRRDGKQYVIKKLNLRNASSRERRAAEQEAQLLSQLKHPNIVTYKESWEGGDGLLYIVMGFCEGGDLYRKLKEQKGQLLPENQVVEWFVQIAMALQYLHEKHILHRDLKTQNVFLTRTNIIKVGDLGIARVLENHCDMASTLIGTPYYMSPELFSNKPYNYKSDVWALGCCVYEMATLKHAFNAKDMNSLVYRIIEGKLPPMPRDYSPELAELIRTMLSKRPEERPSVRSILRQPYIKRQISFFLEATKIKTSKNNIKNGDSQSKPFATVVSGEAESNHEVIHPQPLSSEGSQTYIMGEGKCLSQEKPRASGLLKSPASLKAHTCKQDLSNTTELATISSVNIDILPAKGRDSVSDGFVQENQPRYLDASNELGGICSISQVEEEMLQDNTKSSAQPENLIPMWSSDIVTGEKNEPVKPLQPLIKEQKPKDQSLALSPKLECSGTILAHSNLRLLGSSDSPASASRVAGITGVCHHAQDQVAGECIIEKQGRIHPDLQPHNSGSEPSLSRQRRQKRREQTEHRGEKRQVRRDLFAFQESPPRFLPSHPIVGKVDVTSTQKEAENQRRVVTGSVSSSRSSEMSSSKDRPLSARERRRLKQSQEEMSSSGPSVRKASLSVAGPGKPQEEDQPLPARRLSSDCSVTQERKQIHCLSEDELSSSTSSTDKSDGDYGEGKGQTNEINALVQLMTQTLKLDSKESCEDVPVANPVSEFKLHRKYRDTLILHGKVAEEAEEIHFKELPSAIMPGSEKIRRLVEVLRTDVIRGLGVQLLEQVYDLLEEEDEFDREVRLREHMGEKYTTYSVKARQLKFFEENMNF"}, "[9]": {"molecular_target": "CSF1R (human) (UniProt P07333)"}, "[10]": {"molecular_target": "PRKAA2 PRKAB1 PRKAG1 (human) (UniProt Q9Y478+P54646+P54619)", "conditions": "compound 0.1 µM"}, "[11]": {"molecular_target": "EPHB2 (human) (UniProt P29323)"}, "[12]": {"molecular_target": "AKT1 (human) (UniProt P31749)"}, "[13]": {"molecular_target": "PRKCZ (human) (UniProt Q05513)"}, "[14]": {"molecular_target": "NEK6 (human) (UniProt Q9HC98)"}, "[15]": {"molecular_target": "FGFR2 (human) (UniProt P21802)"}, "[16]": {"molecular_target": "ROCK2 (human) (UniProt O75116)"}, "[17]": {"molecular_target": "CHEK1 (human) (UniProt O14757)", "sequence (O14757 whole entry, looked up)": "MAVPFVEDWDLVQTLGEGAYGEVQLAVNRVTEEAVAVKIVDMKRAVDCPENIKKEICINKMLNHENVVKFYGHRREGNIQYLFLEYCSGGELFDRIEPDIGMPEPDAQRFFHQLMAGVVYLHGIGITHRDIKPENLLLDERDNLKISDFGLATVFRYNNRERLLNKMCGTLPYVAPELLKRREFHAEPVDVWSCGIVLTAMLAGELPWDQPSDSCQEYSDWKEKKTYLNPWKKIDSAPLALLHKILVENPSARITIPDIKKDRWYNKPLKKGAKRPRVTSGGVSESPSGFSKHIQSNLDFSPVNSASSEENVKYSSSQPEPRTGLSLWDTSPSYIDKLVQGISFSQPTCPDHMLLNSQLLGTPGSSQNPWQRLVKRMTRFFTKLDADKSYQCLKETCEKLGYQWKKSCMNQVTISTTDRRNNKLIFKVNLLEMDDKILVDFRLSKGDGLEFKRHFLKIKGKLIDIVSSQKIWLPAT"}, "[18]": {"molecular_target": "MAPKAPK5 (human) (UniProt Q8IW41)"}, "[19]": {"molecular_target": "MAP2K1 (human) (UniProt Q02750)"}, "[20]": {"molecular_target": "GRK6 (human) (UniProt P43250)"}, "[21]": {"molecular_target": "DYRK1A (human) (UniProt Q13627)"}, "[22]": {"molecular_target": "IKBKB (human) (UniProt O14920)", "sequence (O14920 whole entry, looked up)": "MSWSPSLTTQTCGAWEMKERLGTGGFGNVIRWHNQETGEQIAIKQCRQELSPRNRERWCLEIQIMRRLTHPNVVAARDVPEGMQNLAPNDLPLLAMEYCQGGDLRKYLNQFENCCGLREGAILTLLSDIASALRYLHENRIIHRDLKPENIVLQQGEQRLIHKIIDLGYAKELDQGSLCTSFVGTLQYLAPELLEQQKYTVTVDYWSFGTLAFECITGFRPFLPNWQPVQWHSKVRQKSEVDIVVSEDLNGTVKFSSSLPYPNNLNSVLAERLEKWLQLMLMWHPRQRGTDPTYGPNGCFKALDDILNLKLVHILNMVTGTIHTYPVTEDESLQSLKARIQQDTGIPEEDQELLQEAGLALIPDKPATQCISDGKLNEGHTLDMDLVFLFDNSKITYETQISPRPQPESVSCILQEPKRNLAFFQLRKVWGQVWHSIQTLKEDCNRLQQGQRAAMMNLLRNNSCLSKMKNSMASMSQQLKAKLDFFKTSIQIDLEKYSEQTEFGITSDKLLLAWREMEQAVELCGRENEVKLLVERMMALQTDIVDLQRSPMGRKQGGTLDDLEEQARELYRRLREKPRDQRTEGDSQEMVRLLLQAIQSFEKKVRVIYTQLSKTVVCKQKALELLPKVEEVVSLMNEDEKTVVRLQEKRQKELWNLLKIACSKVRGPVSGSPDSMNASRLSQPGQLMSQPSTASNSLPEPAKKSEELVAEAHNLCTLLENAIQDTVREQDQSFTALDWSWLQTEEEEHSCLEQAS"}, "[23]": {"molecular_target": "KIT (human) (UniProt P10721)"}, "[24]": {"molecular_target": "PIM1 (human) (UniProt P11309)", "sequence (P11309 whole entry, looked up)": "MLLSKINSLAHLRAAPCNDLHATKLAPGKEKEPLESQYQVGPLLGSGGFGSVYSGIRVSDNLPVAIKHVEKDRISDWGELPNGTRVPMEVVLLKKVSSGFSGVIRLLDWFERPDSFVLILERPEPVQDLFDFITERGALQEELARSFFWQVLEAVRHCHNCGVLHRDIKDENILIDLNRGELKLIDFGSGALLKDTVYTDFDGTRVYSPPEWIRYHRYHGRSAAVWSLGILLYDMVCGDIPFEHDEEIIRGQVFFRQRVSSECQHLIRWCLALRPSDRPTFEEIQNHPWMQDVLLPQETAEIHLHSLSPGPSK"}, "[25]": {"molecular_target": "AURKB (human) (UniProt Q96GD4)"}, "[26]": {"molecular_target": "BTK (human) (UniProt Q06187)", "sequence (Q06187 whole entry, looked up)": "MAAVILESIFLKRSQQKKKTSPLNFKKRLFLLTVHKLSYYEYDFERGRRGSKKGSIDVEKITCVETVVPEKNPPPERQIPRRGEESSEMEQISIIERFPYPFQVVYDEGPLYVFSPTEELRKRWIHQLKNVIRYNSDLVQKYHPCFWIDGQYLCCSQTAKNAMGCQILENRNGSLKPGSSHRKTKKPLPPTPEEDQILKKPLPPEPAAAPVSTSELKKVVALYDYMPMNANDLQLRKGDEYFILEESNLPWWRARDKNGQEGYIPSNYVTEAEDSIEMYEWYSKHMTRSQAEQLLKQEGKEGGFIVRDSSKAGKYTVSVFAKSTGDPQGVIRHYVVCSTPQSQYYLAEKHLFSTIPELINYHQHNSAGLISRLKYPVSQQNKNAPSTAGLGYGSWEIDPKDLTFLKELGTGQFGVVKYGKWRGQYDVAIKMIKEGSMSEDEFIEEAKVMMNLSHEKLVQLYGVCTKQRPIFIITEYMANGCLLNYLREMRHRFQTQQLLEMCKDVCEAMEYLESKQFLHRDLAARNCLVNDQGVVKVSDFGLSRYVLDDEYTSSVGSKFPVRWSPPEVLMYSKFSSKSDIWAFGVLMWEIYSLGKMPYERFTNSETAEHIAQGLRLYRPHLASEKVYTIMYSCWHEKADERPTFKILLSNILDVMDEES"}, "[27]": {"molecular_target": "JAK2 JH1 JH2 (human) (UniProt O60674)", "sequence (O60674 whole entry, looked up)": "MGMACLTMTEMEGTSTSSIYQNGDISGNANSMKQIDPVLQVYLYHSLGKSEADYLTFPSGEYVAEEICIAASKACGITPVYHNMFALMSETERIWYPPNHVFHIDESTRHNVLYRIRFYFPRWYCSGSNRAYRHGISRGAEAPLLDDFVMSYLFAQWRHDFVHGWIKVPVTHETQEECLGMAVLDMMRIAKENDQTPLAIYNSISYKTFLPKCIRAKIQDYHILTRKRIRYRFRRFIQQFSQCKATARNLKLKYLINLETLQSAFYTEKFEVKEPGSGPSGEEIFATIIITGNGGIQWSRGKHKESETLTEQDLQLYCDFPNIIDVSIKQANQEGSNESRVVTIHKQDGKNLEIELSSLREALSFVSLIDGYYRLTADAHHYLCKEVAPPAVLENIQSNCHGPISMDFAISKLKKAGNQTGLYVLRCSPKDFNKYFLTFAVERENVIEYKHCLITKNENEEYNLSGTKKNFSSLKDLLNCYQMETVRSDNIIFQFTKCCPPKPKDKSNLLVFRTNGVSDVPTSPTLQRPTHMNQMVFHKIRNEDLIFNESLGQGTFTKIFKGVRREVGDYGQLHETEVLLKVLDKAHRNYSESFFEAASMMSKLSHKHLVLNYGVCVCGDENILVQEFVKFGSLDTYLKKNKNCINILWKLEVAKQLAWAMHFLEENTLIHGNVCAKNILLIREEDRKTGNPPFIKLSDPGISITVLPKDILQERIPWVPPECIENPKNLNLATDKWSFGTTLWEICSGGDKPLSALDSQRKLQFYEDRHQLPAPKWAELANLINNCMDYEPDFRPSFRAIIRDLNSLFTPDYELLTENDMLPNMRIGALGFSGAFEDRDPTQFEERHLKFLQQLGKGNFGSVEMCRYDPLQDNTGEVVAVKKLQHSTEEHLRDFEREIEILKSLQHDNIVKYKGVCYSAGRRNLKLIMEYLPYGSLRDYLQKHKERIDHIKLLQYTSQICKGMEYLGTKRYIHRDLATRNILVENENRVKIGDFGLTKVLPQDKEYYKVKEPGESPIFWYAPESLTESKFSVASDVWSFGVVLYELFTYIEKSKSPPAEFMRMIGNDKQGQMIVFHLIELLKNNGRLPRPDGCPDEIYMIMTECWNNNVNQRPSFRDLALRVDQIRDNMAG"}, "[28]": {"molecular_target": "RPS6KB1 (human) (UniProt P23443)"}}, "data": [{"compound": "Cn1cc(-c2cnc3ccc4ccc(CC(=O)NCc5ccccn5)cc4c(=O)c3c2)cn1", "values": [{"measurement": "inhibition", "setting": "[1]; compound 0.1 µM", "result": 26.2, "unit": "%"}, {"measurement": "inhibition", "setting": "[1]; compound 1.0 µM", "result": 25.4, "unit": "%"}, {"measurement": "inhibition", "setting": "[1]; compound 10.0 µM", "result": 7, "unit": "%"}, {"measurement": "inhibition", "setting": "[2]; compound 0.1 µM", "result": 7.2, "unit": "%"}, {"measurement": "inhibition", "setting": "[2]; compound 1.0 µM", "result": 7.1, "unit": "%"}, {"measurement": "inhibition", "setting": "[2]; compound 10.0 µM", "result": 7.7, "unit": "%"}, {"measurement": "inhibition", "setting": "[3]; compound 0.1 µM", "result": 9.2, "unit": "%"}, {"measurement": "inhibition", "setting": "[3]; compound 1.0 µM", "result": 12.5, "unit": "%"}, {"measurement": "inhibition", "setting": "[3]; compound 10.0 µM", "result": 39.1, "unit": "%"}, {"measurement": "inhibition", "setting": "[4]; compound 0.1 µM", "result": 17.9, "unit": "%"}, {"measurement": "inhibition", "setting": "[4]; compound 1.0 µM", "result": 20.8, "unit": "%"}, {"measurement": "inhibition", "setting": "[4]; compound 10.0 µM", "result": 20.1, "unit": "%"}, {"measurement": "inhibition", "setting": "[5]; compound 0.1 µM", "result": 6.3, "unit": "%"}, {"measurement": "inhibition", "setting": "[5]; compound 1.0 µM", "result": 7.7, "unit": "%"}, {"measurement": "inhibition", "setting": "[5]; compound 10.0 µM", "result": 9.5, "unit": "%"}, {"measurement": "inhibition", "setting": "[6]; compound 0.1 µM", "result": 10.5, "unit": "%"}, {"measurement": "inhibition", "setting": "[6]; compound 1.0 µM", "result": 10.2, "unit": "%"}, {"measurement": "inhibition", "setting": "[6]; compound 10.0 µM", "result": 8.8, "unit": "%"}, {"measurement": "inhibition", "setting": "[7]; compound 0.1 µM", "result": 9.9, "unit": "%"}, {"measurement": "inhibition", "setting": "[7]; compound 1.0 µM", "result": 7.3, "unit": "%"}, {"measurement": "inhibition", "setting": "[7]; compound 10.0 µM", "result": 0.6, "unit": "%"}, {"measurement": "inhibition", "setting": "[8]; compound 0.1 µM", "result": 10.8, "unit": "%"}, {"measurement": "inhibition", "setting": "[8]; compound 1.0 µM", "result": 13.5, "unit": "%"}, {"measurement": "inhibition", "setting": "[8]; compound 10.0 µM", "result": 37.8, "unit": "%"}, {"measurement": "inhibition", "setting": "[9]; compound 0.1 µM", "result": 15.7, "unit": "%"}, {"measurement": "inhibition", "setting": "[9]; compound 1.0 µM", "result": 25.8, "unit": "%"}, {"measurement": "inhibition", "setting": "[9]; compound 10.0 µM", "result": 58.3, "unit": "%"}, {"measurement": "inhibition", "setting": "[10]", "result": 11.6, "unit": "%"}, {"measurement": "inhibition", "setting": "[11]; compound 0.1 µM", "result": 8.6, "unit": "%"}, {"measurement": "inhibition", "setting": "[11]; compound 1.0 µM", "result": 8, "unit": "%"}, {"measurement": "inhibition", "setting": "[11]; compound 10.0 µM", "result": 3.5, "unit": "%"}, {"measurement": "inhibition", "setting": "[12]; compound 0.1 µM", "result": 17.2, "unit": "%"}, {"measurement": "inhibition", "setting": "[12]; compound 1.0 µM", "result": 5.5, "unit": "%"}, {"measurement": "inhibition", "setting": "[12]; compound 10.0 µM", "result": 9.1, "unit": "%"}, {"measurement": "inhibition", "setting": "[13]; compound 0.1 µM", "result": 9.2, "unit": "%"}, {"measurement": "inhibition", "setting": "[13]; compound 1.0 µM", "result": 9.9, "unit": "%"}, {"measurement": "inhibition", "setting": "[13]; compound 10.0 µM", "result": 6.9, "unit": "%"}, {"measurement": "inhibition", "setting": "[14]; compound 0.1 µM", "result": 5.2, "unit": "%"}, {"measurement": "inhibition", "setting": "[14]; compound 1.0 µM", "result": -7.4, "unit": "%"}, {"measurement": "inhibition", "setting": "[14]; compound 10.0 µM", "result": 9.6, "unit": "%"}, {"measurement": "inhibition", "setting": "[15]; compound 0.1 µM", "result": 14.2, "unit": "%"}, {"measurement": "inhibition", "setting": "[15]; compound 1.0 µM", "result": 33.5, "unit": "%"}, {"measurement": "inhibition", "setting": "[15]; compound 10.0 µM", "result": 74, "unit": "%"}, {"measurement": "inhibition", "setting": "[16]; compound 0.1 µM", "result": -1.9, "unit": "%"}, {"measurement": "inhibition", "setting": "[16]; compound 1.0 µM", "result": -0.2, "unit": "%"}, {"measurement": "inhibition", "setting": "[16]; compound 10.0 µM", "result": -5.8, "unit": "%"}, {"measurement": "inhibition", "setting": "[17]; compound 0.1 µM", "result": 23.2, "unit": "%"}, {"measurement": "inhibition", "setting": "[17]; compound 1.0 µM", "result": -1.2, "unit": "%"}, {"measurement": "inhibition", "setting": "[17]; compound 10.0 µM", "result": 14.2, "unit": "%"}, {"measurement": "inhibition", "setting": "[18]; compound 0.1 µM", "result": 5.2, "unit": "%"}, {"measurement": "inhibition", "setting": "[18]; compound 1.0 µM", "result": 6.7, "unit": "%"}, {"measurement": "inhibition", "setting": "[18]; compound 10.0 µM", "result": 7.9, "unit": "%"}, {"measurement": "inhibition", "setting": "[19]; compound 0.1 µM", "result": 25.7, "unit": "%"}, {"measurement": "inhibition", "setting": "[19]; compound 1.0 µM", "result": 23.8, "unit": "%"}, {"measurement": "inhibition", "setting": "[19]; compound 10.0 µM", "result": 13.5, "unit": "%"}, {"measurement": "inhibition", "setting": "[20]; compound 0.1 µM", "result": 5.6, "unit": "%"}, {"measurement": "inhibition", "setting": "[20]; compound 1.0 µM", "result": 7, "unit": "%"}, {"measurement": "inhibition", "setting": "[20]; compound 10.0 µM", "result": 13.4, "unit": "%"}, {"measurement": "inhibition", "setting": "[21]; compound 0.1 µM", "result": 10.7, "unit": "%"}, {"measurement": "inhibition", "setting": "[21]; compound 1.0 µM", "result": 33.3, "unit": "%"}, {"measurement": "inhibition", "setting": "[21]; compound 10.0 µM", "result": 79, "unit": "%"}, {"measurement": "inhibition", "setting": "[22]; compound 0.1 µM", "result": 4.6, "unit": "%"}, {"measurement": "inhibition", "setting": "[22]; compound 1.0 µM", "result": 6.6, "unit": "%"}, {"measurement": "inhibition", "setting": "[22]; compound 10.0 µM", "result": 8.5, "unit": "%"}, {"measurement": "inhibition", "setting": "[23]; compound 0.1 µM", "result": 9.7, "unit": "%"}, {"measurement": "inhibition", "setting": "[23]; compound 1.0 µM", "result": 13.2, "unit": "%"}, {"measurement": "inhibition", "setting": "[23]; compound 10.0 µM", "result": 48.1, "unit": "%"}, {"measurement": "inhibition", "setting": "[24]; compound 0.1 µM", "result": 6, "unit": "%"}, {"measurement": "inhibition", "setting": "[24]; compound 1.0 µM", "result": 5.4, "unit": "%"}, {"measurement": "inhibition", "setting": "[24]; compound 10.0 µM", "result": 23.6, "unit": "%"}, {"measurement": "inhibition", "setting": "[25]; compound 0.1 µM", "result": 19.7, "unit": "%"}, {"measurement": "inhibition", "setting": "[25]; compound 1.0 µM", "result": 51.8, "unit": "%"}, {"measurement": "inhibition", "setting": "[25]; compound 10.0 µM", "result": 96.4, "unit": "%"}, {"measurement": "inhibition", "setting": "[26]; compound 0.1 µM", "result": 10.9, "unit": "%"}, {"measurement": "inhibition", "setting": "[26]; compound 1.0 µM", "result": 13.4, "unit": "%"}, {"measurement": "inhibition", "setting": "[26]; compound 10.0 µM", "result": 15.4, "unit": "%"}, {"measurement": "inhibition", "setting": "[27]; compound 0.1 µM", "result": 4.4, "unit": "%"}, {"measurement": "inhibition", "setting": "[27]; compound 1.0 µM", "result": 12.5, "unit": "%"}, {"measurement": "inhibition", "setting": "[27]; compound 10.0 µM", "result": 41, "unit": "%"}, {"measurement": "inhibition", "setting": "[28]; compound 0.1 µM", "result": 5.5, "unit": "%"}, {"measurement": "inhibition", "setting": "[28]; compound 1.0 µM", "result": 19.7, "unit": "%"}, {"measurement": "inhibition", "setting": "[28]; compound 10.0 µM", "result": 25.1, "unit": "%"}]}]}
